Key:
[1] = system: corn; assay: Test A pre-/postemergence greenhouse test; format: in vivo, Zea mays; details: for Corn plant response rating: 0 to 100 scale; for Plant response rating, Corn: 0 to 100 scale where 0 is no effect and 100 is complete control
Summary of the method: (§1)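 Sowing in loam/sand; same-day pre (directed soil spray) and post (foliar, 1–2 leaf, 2–10 cm) treatment with surfactant-containing non-phytotoxic solvent formulation; ~10 days in greenhouse; eye-scored injury against untreated plants.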

[2] = system: velvetleaf; assay: Test A pre-/postemergence greenhouse test; format: in vivo, Abutilon theophrasti; details: for Velvetleaf plant response rating: 0 to 100 scale; for Plant response rating, Velvetleaf: 0 to 100 scale where 0 is no effect and 100 is complete control
Summary of the method: as §1

[3] = system: velvetleaf; assay: Test C pre-/postemergence test; format: in vivo, Abutilon theophrasti; details: for Plant response rating, Velvetleaf: 31 g ai/ha, scale 0 to 100 (0 no effect, 100 complete control)
Summary of the method: (§2)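 Seeds were planted and treated preemergence with test chemical in a non-phytotoxic solvent mixture containing surfactant. Postemergence applications of the same formulation went onto plants 2 to 18 cm tall (1- to 4-leaf stage). A dash marks no test result.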

[4] = system: bermudagrass; assay: Test C pre-/postemergence test; format: in vivo, Cynodon dactylon; details: for Plant response rating, Bermudagrass: 31 g ai/ha
Summary of the method: as §2

[5] = system: johnsongrass; assay: Test C pre-/postemergence test; format: in vivo, Sorghum halepense; details: for Plant response rating, Johnsongrass: 31 g ai/ha, scale 0 to 100 (0 no effect, 100 complete control)
Summary of the method: as §2

[6] = system: rice; assay: Test C flooded paddy test; format: in vivo, Oryza sativa; details: Flood
Summary of the method: (§3)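 Under a constant 3 cm flood, test compounds went directly into the paddy water. Following 13 to 15 days of greenhouse growth, treated species and controls were compared by eye.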

[7] = system: wheat; assay: Test A pre-/postemergence greenhouse test; format: in vivo, Triticum aestivum; details: for Wheat plant response rating: 0 to 100 scale; for Plant response rating, Wheat: 0 to 100 scale where 0 is no effect and 100 is complete control
Summary of the method: as §1

[8] = system: giant foxtail; assay: Test A pre-/postemergence greenhouse test; format: in vivo, Setaria faberi; details: for Foxtail, Giant plant response rating: 0 to 100 scale; for Plant response rating, Foxtail, Giant: 0 to 100 scale where 0 is no effect and 100 is complete control
Summary of the method: as §1

[9] = system: duck salad; assay: Test C flooded paddy test; format: in vivo, Heteranthera limosa; details: Flood
Summary of the method: as §3

[10] = system: lambsquarters; assay: Test C pre-/postemergence test; format: in vivo, Chenopodium album
Summary of the method: as §2

[11] = system: Goosegrass; assay: Test C pre-/postemergence test; format: in vivo, Eleusin indica; details: for Plant response rating, Goosegrass: 31 g ai/ha, scale 0 to 100 (0 no effect, 100 complete control)
Summary of the method: as §2

[12] = system: giant foxtail; assay: Test C pre-/postemergence test; format: in vivo, Setaria faberii; details: for Plant response rating, Foxtail, Giant: 31 g ai/ha, scale 0 to 100 (0 no effect, 100 complete control)
Summary of the method: as §2

[13] = system: barnyardgrass; assay: Test C flooded paddy test; format: in vivo, Echinochloa crus-galli; details: Flood
Summary of the method: as §3

[14] = system: Surinam grass; assay: Test C pre-/postemergence test; format: in vivo, Brachiaria decumbens; details: for Plant response rating, Surinam Grass: 31 g ai/ha, scale 0 to 100 (0 no effect, 100 complete control)
Summary of the method: as §2

[15] = system: wild oat; assay: Test C pre-/postemergence test; format: in vivo, Avena fatua; details: for Plant response rating, Oat, Wild: 31 g ai/ha, scale 0 to 100 (0 no effect, 100 complete control)
Summary of the method: as §2

[16] = system: redroot pigweed; assay: Test A pre-/postemergence greenhouse test; format: in vivo, Amaranthus retroflexus; details: for Pigweed plant response rating: 0 to 100 scale; for Plant response rating, Pigweed: 0 to 100 scale where 0 is no effect and 100 is complete control
Summary of the method: as §1

[17] = system: eastern black nightshade; assay: Test C pre-/postemergence test; format: in vivo, Solanum ptycanthum; details: for Plant response rating, Nightshade: 31 g ai/ha, scale 0 to 100 (0 no effect, 100 complete control)
Summary of the method: as §2

[18] = system: common ragweed; assay: Test C pre-/postemergence test; format: in vivo, Ambrosia elation
Summary of the method: as §2

[19] = Postemergence, 125 g ai/ha, 0 is no effect, 100 is complete control
[20] = Postemergence, 500 g ai/ha, 0 is no effect, 100 is complete control
[21] = Preemergence, 125 g ai/ha, 0 no effect, 100 complete control
[22] = 62 g ai/ha, Preemergence, scale 0 to 100
[23] = 62 g ai/ha, Preemergence, scale 0 to 100 (0 no effect, 100 complete control)
[24] = Preemergence, scale 0 to 100 (0 no effect, 100 complete control)
[25] = 31 g ai/ha, scale 0 to 100 (0 no effect, 100 complete control)
[26] = 62 g ai/ha, scale 0 to 100, 0 no effect, 100 complete control, 13 to 15 days
[27] = 125 g ai/ha, scale 0 to 100, 0 no effect, 100 complete control, 13 to 15 days
[28] = 250 g ai/ha, scale 0 to 100 (0 no effect, 100 complete control)
[29] = Preemergence, 31 g ai/ha, scale 0 to 100 (0 no effect, 100 complete control)
[30] = 125 g ai/ha, preemergence, scale 0 (no effect) to 100 (complete control)
[31] = preemergence, 250 g ai/ha, scale 0 (no effect) to 100 (complete control)
[32] = 62 g ai/ha, scale 0 to 100 (0 no effect, 100 complete control)
[33] = 250 g ai/ha, scale 0 to 100, 0 no effect, 100 complete control, 13 to 15 days

Structure (SMILES): Cn1nc(C(F)(F)F)c(C[S+]([O-])c2cc(C(C)(C)C)cc[n+]2[O-])c1OC(F)F (racemic) [Compound 24]
- Corn plant response rating [1, 19]: 0
- Corn plant response rating [1, 20]: 40
- Corn plant response rating [1, 21]: 0
- Plant response rating, Corn ([1]; Preemergence, 500 g ai/ha): 40
- Velvetleaf plant response rating [2, 19]: 40
- Velvetleaf plant response rating [2, 20]: 60
- Velvetleaf plant response rating [2, 21]: 70
- Plant response rating, Velvetleaf ([2]; Preemergence, 500 g ai/ha): 100
- Velvetleaf plant response rating [3, 22]: 100
- Plant response rating, Velvetleaf ([3]; Preemergence): 55
- Bermudagrass plant response rating [4, 23]: 85
- Plant response rating, Bermudagrass [4, 24]: 75
- Plant response rating (0 to 100), Bermudagrass ([4]; Preemergence, 250 g ai/ha): 100
- Bermudagrass plant response rating ([4]; preemergence, 125 g ai/ha, scale 0 (no effect) to 100 (complete control)): 100
- Johnsongrass plant response rating [5, 22]: 90
- Plant response rating, Johnsongrass ([5]; Preemergence): 50
- Plant response rating (0 to 100), Johnsongrass ([5]; Preemergence, 250 g ai/ha): 100
- Plant response rating, Rice [6, 25]: 0
- Plant response rating, Rice [6, 26]: 30
- Plant response rating, Rice [6, 27]: 45
- Plant response rating, Rice [6, 28]: 80
- Wheat plant response rating [7, 19]: 0
- Wheat plant response rating [7, 20]: 30
- Wheat plant response rating [7, 21]: 50
- Plant response rating, Wheat ([7]; Preemergence, 500 g ai/ha): 90
- Foxtail, Giant plant response rating [8, 19]: 30
- Foxtail, Giant plant response rating [8, 20]: 70
- Foxtail, Giant plant response rating [8, 21]: 100
- Plant response rating, Foxtail, Giant ([8]; Preemergence, 500 g ai/ha): 100
- Plant response rating, Ducksalad [9, 25]: 0
- Plant response rating, Ducksalad [9, 26]: 60
- Plant response rating, Ducksalad [9, 27]: 80
- Plant response rating, Ducksalad [9, 28]: 85
- Lambsquarters plant response rating [10, 22]: 100
- Plant response rating, Lambsquarters [10, 29]: 85
- Goosegrass plant response rating [11, 22]: 100
- Plant response rating, Goosegrass ([11]; Preemergence): 85
- Plant response rating (0 to 100), Goosegrass ([11]; Preemergence, 250 g ai/ha): 100
- Foxtail, Giant plant response rating [12, 22]: 90
- Plant response rating, Foxtail, Giant ([12]; Preemergence): 70
- Plant response rating (0 to 100), Foxtail, Giant ([12]; Preemergence, 250 g ai/ha): 100
- Plant response rating, Barnyardgrass [13, 25]: 0
- Plant response rating, Barnyardgrass [13, 26]: 30
- Plant response rating, Barnyardgrass [13, 27]: 30
- Plant response rating, Barnyardgrass [13, 28]: 35
- Surinam Grass plant response rating [14, 22]: 40
- Plant response rating, Surinam Grass ([14]; Preemergence): 20
- Oat, Wild plant response rating [15, 22]: 80
- Plant response rating, Oat, Wild ([15]; Preemergence): 50
- Pigweed plant response rating [16, 19]: 20
- Pigweed plant response rating [16, 20]: 50
- Pigweed plant response rating [16, 21]: 100
- Plant response rating, Pigweed ([16]; Preemergence, 500 g ai/ha): 100
- Nightshade plant response rating [17, 22]: 100
- Plant response rating, Nightshade ([17]; Preemergence): 100
- Ragweed plant response rating [18, 22]: 70
- Plant response rating, Ragweed [18, 29]: 0

Structure (SMILES): Cn1nc(OC(F)F)c(CS(=O)(=O)c2cccc[n+]2[O-])c1C(F)(F)F [Compound 80]
- Plant response rating, Corn ([1]; Postemergence, 125 g ai/ha): 0
- Corn plant response rating [1, 20]: 50
- Corn plant response rating [1, 21]: 0
- Plant response rating, Corn ([1]; Preemergence, 500 g ai/ha): 60
- Plant response rating, Velvetleaf ([2]; Postemergence, 125 g ai/ha): 0
- Velvetleaf plant response rating [2, 20]: 60
- Velvetleaf plant response rating [2, 21]: 0
- Plant response rating, Velvetleaf ([2]; Preemergence, 500 g ai/ha): 70
- Velvetleaf plant response rating [3, 22]: 0
- Velvetleaf plant response rating [3, 30]: 60
- Plant response rating, Velvetleaf ([3]; Preemergence): 0
- Velvetleaf plant response rating [3, 31]: 65
- Bermudagrass plant response rating [4, 23]: 100
- Bermudagrass plant response rating [4, 30]: 100
- Plant response rating, Bermudagrass [4, 24]: 100
- Bermudagrass plant response rating [4, 31]: 100
- Johnsongrass plant response rating [5, 22]: 85
- Johnsongrass plant response rating [5, 30]: 90
- Plant response rating, Johnsongrass ([5]; Preemergence): 85
- Johnsongrass plant response rating [5, 31]: 100
- Plant response rating, Rice [6, 32]: 0
- Plant response rating, Rice [6, 33]: 50
- Plant response rating, Wheat ([7]; Postemergence, 125 g ai/ha): 30
- Wheat plant response rating [7, 20]: 60
- Wheat plant response rating [7, 21]: 10
- Plant response rating, Wheat ([7]; Preemergence, 500 g ai/ha): 80
- Plant response rating, Foxtail, Giant ([8]; Postemergence, 125 g ai/ha): 70
- Foxtail, Giant plant response rating [8, 20]: 80
- Foxtail, Giant plant response rating [8, 21]: 90
- Plant response rating, Foxtail, Giant ([8]; Preemergence, 500 g ai/ha): 100
- Plant response rating, Ducksalad [9, 32]: 0
- Plant response rating, Ducksalad [9, 33]: 85
- Lambsquarters plant response rating [10, 30]: 60
- Lambsquarters plant response rating [10, 31]: 100
- Goosegrass plant response rating [11, 22]: 98
- Goosegrass plant response rating [11, 30]: 100
- Plant response rating, Goosegrass ([11]; Preemergence): 80
- Goosegrass plant response rating [11, 31]: 100
- Foxtail, Giant plant response rating [12, 22]: 90
- Foxtail, Giant plant response rating [12, 30]: 98
- Plant response rating, Foxtail, Giant ([12]; Preemergence): 80
- Foxtail, Giant plant response rating [12, 31]: 100
- Plant response rating, Barnyardgrass [13, 32]: 0
- Plant response rating, Barnyardgrass [13, 33]: 60
- Surinam Grass plant response rating [14, 22]: 80
- Surinam Grass plant response rating [14, 30]: 80
- Plant response rating, Surinam Grass ([14]; Preemergence): 70
- Surinam Grass plant response rating [14, 31]: 100
- Oat, Wild plant response rating [15, 22]: 85
- Oat, Wild plant response rating [15, 30]: 95
- Plant response rating, Oat, Wild ([15]; Preemergence): 70
- Oat, Wild plant response rating [15, 31]: 100
- Plant response rating, Pigweed ([16]; Postemergence, 125 g ai/ha): 10
- Pigweed plant response rating [16, 20]: 40
- Pigweed plant response rating [16, 21]: 70
- Plant response rating, Pigweed ([16]; Preemergence, 500 g ai/ha): 90
- Nightshade plant response rating [17, 22]: 80
- Plant response rating, Nightshade ([17]; Preemergence): 50
- Nightshade plant response rating [17, 31]: 90
- Ragweed plant response rating [18, 22]: 0
- Ragweed plant response rating [18, 30]: 85
- Ragweed plant response rating [18, 31]: 100

From patent US20100298141A1, “SUBSTITUTED PYRIDINE N-OXIDE HERBICIDES” (E. I. DU PONT DE NEMOURS AND COMPANY, priority 2007, published 2010)
